Experimental data from patent US11654149B2, “Calmodulin inhibitors for the treatment of ribosomal disorders and ribosomapathies” (CHILDREN'S MEDICAL CENTER CORPORATION, priority 2012, dated 2023).
“Also recorded” adds a separate entry of the source. Where a name gives a salt, the structure may show the parent alone. One block for each molecule: values may come before it.

Key:
[1] = test system: rps29−/− zebrafish embryos; test: flk1 whole-mount in situ hybridization (intersegmental vessel staining) in rps29−/− embryo chemical screen; assay type: in vivo; conditions: rps29−/− embryos treated from bud to 23 hpf, flk1 ISH at 24 hpf
Description: Fish were maintained under approved laboratory conditions.
(§1) Whole-mount in situ hybridization (ISH) was performed as described (Thisse and Thisse, 2008). Antisense probes were synthesized from digested plasmid. O-Dianisidine was performed as described previously (Paffett-Lugassy and Zon, 2005).

rps29 mutant embryos = test: benzidine staining for hemoglobin levels in rps29 mutant embryos; assay type: in vivo, zebrafish; conditions: benzidine staining at 40 hpf
Description: Fish were maintained under approved laboratory conditions. […] .
as §1

[2] = test system: calmodulin dependent PDE1; conditions: cited from earlier work
A549 cells [3] = test: immunofluorescence staining for p53 and p21 nuclear localization in A549 cells with RPS19 knockdown; assay type: cell-based; conditions: for p53 nuclear staining intensity: p=0.00028 for A-3; for p53 nuclear accumulation: A549 cells
Description: (§2) A549 and CD34+ cells were infected with previously characterized lentiviral shRNA targeting RPS19 (Dutt et al., 2011). Unless otherwise noted, drugs were added one day post infection, and cells were collected for analysis 3-6 days post infection.
(§3) For flow cytometry based measurement of protein levels, cells were fixed in 2% paraformaldehyde for 15 minutes at 37° C., and methanol was added for overnight incubation at 4° C. Cells were incubated for one hour in 1:100 diluted p21 primary antibody (Cell Signaling 12D1) followed by one hour in conjugated secondary antibody and 1:50 diluted p53-conjugated antibody (Cell Signaling 1C12). Immunofluorescence staining was performed as previously described (Dutt et al., 2011).
Immunofluorescence staining for p53 and p21 was performed on chemically treated cells (FIG. 4A). For 10-15 cells per condition, average nuclear and cytoplasmic intensity was determined using ImageJ.

A549 cells [4] = test: cell cycle status by flow cytometry (propidium iodide) in A549 cells; assay type: cell-based
Description: (§4) FIGS. 4A-4D show treatment with A-3 inhibits p53 and p21 nuclear localization upon rps19 knockdown.
as §2

A549 cells [5] = test: flow cytometry for annexin and propidium iodide in A549 cells; assay type: cell-based
Description: as §4, §2

[6] = test system: rps29−/− zebrafish embryos; test: head morphology scoring in rps29−/− embryo chemical screen; conditions: 24 hpf
Description: Fish were maintained under approved laboratory conditions. Studies were performed on AB wildtype strains and hi2903, an insertional mutant in the first intron of ribosomal protein S29 (rps29). Embryos were subjected to chemicals diluted in E3. For screening, chemicals from ICCB Biomol Known Bioactive, Sigma, and Lopac libraries were tested at 1:300 dilutions from library stock. Compounds were tested in two independent experiments of 20 embryos each, so approximately 10 mutant embryos were scored per chemical. […] Nimodipine (Enzo) was diluted in DMSO and tested in doses from 1.5 to 20 μg/mL. SNAP (Cayman) was diluted in DMSO and tested in doses from 0.5 to 5 μg/mL. YS-035 (Sigma) was diluted in water and treated in doses from 0.8 to 8 μg/mL. Vinpocetine (Enzo) was diluted in ethanol and treated in doses from 0.3 to 3 μg/mL.
A screen was performed to identify chemicals that could rescue the endothelial and morphological defects of the rps29^−/− mutant embryo (FIG. 1A). Rps29^−/− fish were incrossed, and embryos were collected for treatment at bud stage (10 hpf). Embryos were treated from bud to 23 hpf with compounds of known bioactivity. After being scored for rescue of head morphology, embryos were fixed at 24 hpf for in situ hybridization of flk1 and rps29. Embryos without rps^29 staining (rps29^−/− mutants) were scored for rescue of flk1 intersegmental vessel staining.

A549 cells [7] = test: flow cytometry of p53 and p21 protein in A549 cells with RPS19 shRNA; assay type: cell-based; conditions: for p21 protein level / p53 protein level: A549, RPS19 shRNA, drug 24 hours post infection, analyzed 3-6 days post infection
Description: as §2, §3
The inventors next tested the effect of calmodulin inhibitors in A549 cells, where p53 is not mutated and is induced upon ribosomal protein knockdown (Fumagalli et al., 2009). A549 cells were infected with control or RPS19 shRNA and treated with A-3 or TFP 24 hours post infection. Cells were analyzed 3-6 days post infection. […] In addition, removal of drug leads to an increase in p21 levels within 24 hours (data not shown).

CD34+ cells = test: p21 protein by FACS in CD34+ cells with RPS19 knockdown in erythroid proliferation media; assay type: cell-based, human
Description: as §2, §3
As DBA is a hematopoietic disorder, the inventors next tested the effects of A-3 in CD34+ cells with RPS19 knockdown by siRNA. In an in vitro system that mimics the differentiation of erythrocytes in vivo, the inventors knocked down RPS19 using shRNA. […] When RPS19 is reduced during erythroid differentiation, p21 mRNA levels increased about 6-fold compared to luciferase-infected controls and the transferrin receptor, CD71+ and a marker that is first detected at the proerythroblast stage, glycophorin A (GPA), are reduced 40% and 50%, respectively (Dutt et al., 2011).

Human CD34+ cells = test: in vitro erythroid differentiation assay of CD34+ cells with RPS19 shRNA; assay type: cell-based; set-up: p21 mRNA: dose or concentration left out as unconfirmed; conditions: for rescue of CD71+ expression: day 10 of erythroid differentiation, flow cytometry
Description: as §2
As DBA is a hematopoietic disorder, the inventors next tested the effects of A-3 in CD34+ cells with RPS19 knockdown by siRNA. In an in vitro system that mimics the differentiation of erythrocytes in vivo, the inventors knocked down RPS19 using shRNA. Human CD34+ cells are expanded in culture for 4 days and then infected with RPS19 shRNA or luciferase control shRNA lentiviral construct, selected with puromycin for 2 days and on day 7, the media is replaced with media containing high EPO to initiate erythroid differentiation (FIG. 6A). When RPS19 is reduced during erythroid differentiation, p21 mRNA levels increased about 6-fold compared to luciferase-infected controls and the transferrin receptor, CD71+ and a marker that is first detected at the proerythroblast stage, glycophorin A (GPA), are reduced 40% and 50%, respectively (Dutt et al., 2011).

[8] = test system: human T cells subjected to ionizing radiation; conditions: read-out: EC50, prevention of apoptosis; cited from earlier work
[9] = test system: ion channel currents (calcium, potassium and sodium channels); conditions: in vitro experiments and in animals; cited from earlier work
[10] = cited from earlier work
[11] = A549, RPS19 knockdown, ImageJ, 10-15 cells per condition

Structure (SMILES): CC(=O)N[C@@H](C(=O)O)C(C)(C)SN=O (racemic) [SNAP]
rescue of flk1 expression / vasculature defect [1]: rescued flk1 intersegmental vessel staining

annexin V positivity (A549 cells [5]): increased annexin V positivity
Structure (SMILES): NCCNS(=O)(=O)c1cccc2c(Cl)cccc12 [A-3]
rescue of hemoglobin levels (rps29 mutant embryos): rescue hemoglobin levels | inhibition of calmodulin dependent PDE1 compared with other calmodulin-dependent enzymes [2]: less effective inhibitor | rescue of flk1 expression / vasculature defect [1]: did not rescue the vasculature | p53 nuclear staining intensity (A549 cells [3]; [11]): decreased | p21 nuclear staining intensity (A549 cells [3]; A549, RPS19 knockdown, ImageJ, 10-15 cells per condition, p=0.007 for A-3): decreased | p53 nuclear accumulation (A549 cells [3]): reversed p53 nuclear accumulation | effect on RPS19 shRNA induced cell cycle arrest (A549 cells [4]): no obvious effect | rescue of head morphology [6]: rescued the morphology | p21 protein level (A549 cells [7]): statistically significant decrease; also recorded: decrease of p21 protein | p53 protein level (A549 cells [7]): still increased; also recorded: without a matching decrease of p53 | time of treatment until p21 protein levels begin to decrease (A549 cells [7]; A549, shorter treatment windows (FIG. 3E-3F, timecourse of A-3 treatment)): ≤ 1.5 h | concentration decreasing the levels of p21 in CD34+ cells (CD34+ cells; CD34+ cells in an erythroid cell population in vitro): 1 to 50 µM | p21 protein (CD34+ cells; CD34+ cells, RPS19 knockdown, erythroid proliferation media): decrease p21 protein

Structure (SMILES): Cl.NCCCCCCCCCCNS(=O)(=O)c1cccc2c(Cl)cccc12 [A-7]
rescue of flk1 expression / vasculature defect [1]: rescue the vasculature defect

Structure (SMILES): NC(=O)c1ccc2[nH]c(-c3ccc(Oc4ccc(Cl)cc4)cc3)nc2c1 [BML-277]
rescue of CD71+ levels (Human CD34+ cells; inhibitor panel against individual calmodulin-dependent enzymes): rescued CD71+ levels | p53 nuclear accumulation (A549 cells [3]): prevented nuclear accumulation of p53 | EC50 [8]: 3 to 7.6 µM

Structure (SMILES): CC1(CN2CCC(n3c(=O)[nH]c4ccccc43)CC2)OCc2ccccc2-n2cccc21 (centres unmarked) [CGS-9343B, zaldaride maleate]
rescue of flk1 expression / vasculature defect [1]: rescued flk1 expression

annexin V positivity (A549 cells [5]): increased annexin V positivity
Structure (SMILES): CN1CCN(CCCN2c3ccccc3Sc3ccc(C(F)(F)F)cc32)CC1 [TFP, 10-[3-(4-methylpiperazin-1-yl)propyl]-2-(trifluoromethyl)-10H-phenothiazine]
rescue of blood cell differentiation (Human CD34+ cells): can rescue blood cell differentiation | p21 mRNA (Human CD34+ cells; RPS19 shRNA, quantitative PCR): decreased p21 mRNA to control levels | rescue of CD71+ expression (Human CD34+ cells; RPS19 shRNA): rescue CD71+ expression | concentration restoring the percentage of CD71+ cells (Human CD34+ cells; erythroid cell population in vitro): 5 to 20 µM | rescue of flk1 expression / vasculature defect [1]: rescued flk1 expression | p53 nuclear staining intensity (A549 cells [3]; [11]): same effect was seen | p53 nuclear accumulation (A549 cells [3]): reversed p53 nuclear accumulation | effect on RPS19 shRNA induced cell cycle arrest (A549 cells [4]): no obvious effect | p21 protein level (A549 cells [7]): statistically significant decrease; also recorded: decrease of p21 protein | p53 protein level (A549 cells [7]): still increased; also recorded: without a matching decrease of p53

Structure (SMILES): CCOC(=O)C1=C[C@]2(CC)CCCN3CCc4c(n1c1ccccc41)[C@@H]32 [Vinpocetine, ethyl apovincaminate]
rescue of flk1 expression / vasculature defect [1]: a hit in the screen

Structure (SMILES): Cl.NCCCCCCNS(=O)(=O)c1cccc2ccccc12 [W-5]
rescue of flk1 expression / vasculature defect [1]: rescue the vasculature defect

Structure (SMILES): Cl.NCCCCCCNS(=O)(=O)c1cccc2c(Cl)cccc12 [W-7, N-(6-Aminohexyl)-5-chloro-1-naphthalenesulfonamide hydrochloride]
rescue of hemoglobin levels (rps29 mutant embryos): rescues hemoglobin levels | rescue of flk1 expression / vasculature defect [1]: rescue flk1 expression

Structure (SMILES): COc1ccc(CCN(C)CCc2ccc(OC)c(OC)c2)cc1OC [YS-035]
rescue of flk1 expression / vasculature defect [1]: rescued the vasculature defect

Structure (SMILES): CC(C)COCC(CN(Cc1ccccc1)c1ccccc1)N1CCCC1 (centres unmarked) [bepridil]
IC50 for these processes [9]: low micromolar range

Structure (SMILES): OCCN1CCN(CCCN2c3ccccc3Sc3ccc(C(F)(F)F)cc32)CC1 [fluphenazine, 4-[3-[2-(trifluoromethyl)phenothiazin-10-yl]propyl]-1-piperazineethanol]
rescue of blood cell differentiation (Human CD34+ cells): can rescue blood cell differentiation | rescue of CD71+ expression (Human CD34+ cells; RPS19 shRNA): rescue CD71+ expression

Structure (SMILES): OCCN1CCN(CCCN2c3ccccc3Sc3ccc(Cl)cc32)CC1 [perphenazine, 4-[3-(2-Chloro-10H-phenothiazin-10-yl)propyl]-1-piperazineethanol]
rescue of blood cell differentiation (Human CD34+ cells): can rescue blood cell differentiation | oral bioavailability [10]: approximately 40%
